Assay results taken from ChEMBL document CHEMBL1144044, “Synthesis and biological activity of quinolinone and dihydroquinolinone p38 MAP kinase inhibitors” (Bioorg Med Chem Lett, 2008).
pIC50: −log10 of the molar value.

How the values were obtained:
[1] = biological target: T1, Mitogen-activated protein kinase 14 (Homo sapiens, UniProt Q16539); assay: Inhibition of p38alpha; conditions: for pIC50: read-out: IC50
[2] = biological target: T1, Mitogen-activated protein kinase 14; assay: Inhibition of p38-alpha at 10 uM by whole blood assay
[3] = biological target: T1, Mitogen-activated protein kinase 14; assay: Inhibition of p38-alpha by whole blood assay
[4] = biological target: T1, Mitogen-activated protein kinase 14; assay: Inhibition of p38-alpha at 100 nM
[5] = biological target: T1, Mitogen-activated protein kinase 14; assay: Inhibition of p38-alpha at 1000 nM
[6] = biological target: T1, Mitogen-activated protein kinase 14; assay: Inhibition of p38-alpha at 1250 nM

T1 sequence (Q16539 whole entry): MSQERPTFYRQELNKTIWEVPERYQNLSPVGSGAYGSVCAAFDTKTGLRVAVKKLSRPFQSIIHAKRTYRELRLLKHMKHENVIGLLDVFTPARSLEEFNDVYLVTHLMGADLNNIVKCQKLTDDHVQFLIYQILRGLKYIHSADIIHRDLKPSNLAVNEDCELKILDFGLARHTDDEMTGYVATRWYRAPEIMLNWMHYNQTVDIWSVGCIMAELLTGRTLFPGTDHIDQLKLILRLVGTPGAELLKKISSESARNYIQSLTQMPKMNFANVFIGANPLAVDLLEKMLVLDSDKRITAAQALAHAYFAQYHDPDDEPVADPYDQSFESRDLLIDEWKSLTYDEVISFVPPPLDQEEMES

| pIC50 [1] | pIC50 [3] | SMILES | also measured |
| --- | --- | --- | --- |
| 8.30 | – | O=c1c(O)cc2c(-c3ccccc3Cl)cc(O)cc2n1-c1c(Cl)cccc1Cl | – |
| 8.82 | – | COc1cc(-c2ccccc2Cl)c2ccc(=O)n(-c3c(Cl)cccc3Cl)c2c1 | inhibition [2]: 75% |
| 9.70 | 7.33 | C[C@@H](N)C(=O)NCCOc1cc(-c2ccccc2Cl)c2ccc(=O)n(-c3c(Cl)cccc3Cl)c2c1 | – |
| – | – | COc1cc(-c2ccccc2Cl)c2cc(OC)c(=O)n(-c3c(Cl)cccc3Cl)c2c1 | inhibition [4]: 29% |
| – | – | COC1Cc2c(-c3ccccc3Cl)cccc2N(c2c(Cl)cccc2Cl)C1=O (stereo unspecified) | IC50 [1]: Not Active |
| 9.80 | 7.49 | C[C@H](N)C(=O)NCCOc1cc(-c2ccccc2Cl)c2ccc(=O)n(-c3c(Cl)cccc3Cl)c2c1 | – |
| 6.46 | – | O=c1ccc2c(-c3ccccn3)cccc2n1-c1c(Cl)cccc1Cl | – |
| 7.55 | – | COc1cc(-c2ccccc2Cl)c2cc(O)c(=O)n(-c3c(Cl)cccc3Cl)c2c1 | – |
| 8.40 | – | O=C1C(O)Cc2c(-c3ccccc3Cl)cc(O)cc2N1c1c(Cl)cccc1Cl (stereo unspecified) | – |
| 9.30 | 6.70 | NC(CO)C(=O)NCCOc1cc(-c2ccccc2Cl)c2ccc(=O)n(-c3c(Cl)cccc3Cl)c2c1 (stereo unspecified) | – |
| – | – | [N-]=[N+]=NC1Cc2c(-c3ccccc3Cl)cccc2N(c2c(Cl)cccc2Cl)C1=O (stereo unspecified) | inhibition [4]: 15% |
| 9.52 | 7.10 | NCC(=O)NCCOc1cc(-c2ccccc2Cl)c2ccc(=O)n(-c3c(Cl)cccc3Cl)c2c1 | – |
| 9.05 | 7.14 | O=C(NCCOc1cc(-c2ccccc2Cl)c2ccc(=O)n(-c3c(Cl)cccc3Cl)c2c1)[C@H]1CCCN1 | – |
| 8.05 | – | COc1cc(-c2ccccc2Cl)c2c(c1)N(c1c(Cl)cccc1Cl)C(=O)C(O)C2 (stereo unspecified) | – |
| 8.82 | 6.00 | NC1(C(=O)NCCOc2cc(-c3ccccc3Cl)c3ccc(=O)n(-c4c(Cl)cccc4Cl)c3c2)CC1 | – |
| 6.34 | – | O=c1ccc2c(-c3cccnc3)cccc2n1-c1c(Cl)cccc1Cl | – |
| – | – | O=c1ccc2c(-c3ccncc3)cccc2n1-c1c(Cl)cccc1Cl | inhibition [5]: 58% |
| – | – | COc1cc(-c2ccccc2Cl)c2c(c1)N(c1c(Cl)cccc1Cl)C(=O)C(OC)C2 (stereo unspecified) | inhibition [6]: 63% |
| 9.92 | 7.55 | CC(C)(N)C(=O)NCCOc1cc(-c2ccccc2Cl)c2ccc(=O)n(-c3c(Cl)cccc3Cl)c2c1 | – |
| – | – | NC1Cc2c(-c3ccccc3Cl)cccc2N(c2c(Cl)cccc2Cl)C1=O (stereo unspecified) | IC50 [1]: Not Active |
| 9.15 | – | O=c1ccc2c(-c3ccccc3Cl)cc(O)cc2n1-c1c(Cl)cccc1Cl | – |
| 9.24 | 6.89 | NCCC(=O)NCCOc1cc(-c2ccccc2Cl)c2ccc(=O)n(-c3c(Cl)cccc3Cl)c2c1 | – |
| 9.12 | 7.06 | O=C(NCCOc1cc(-c2ccccc2Cl)c2ccc(=O)n(-c3c(Cl)cccc3Cl)c2c1)[C@@H]1CCCN1 | – |
| 7.56 | – | O=C1C(O)Cc2c(-c3ccccc3Cl)cccc2N1c1c(Cl)cccc1Cl (stereo unspecified) | – |
| 7.87 | – | O=c1ccc2c(-c3ccccc3)cccc2n1-c1c(Cl)cccc1Cl | – |
| 8.22 | – | O=c1ccc2c(-c3ccccc3Cl)cccc2n1-c1c(Cl)cccc1Cl | – |
